Source: ChEMBL document CHEMBL5113512, “β-Nitrostyrene derivatives as broad range potential antifungal agents targeting fungal cell wall” (2022)
≈ marks a conversion by molar mass, not a printed value.

Key:
Type in all cases: functional
Candida albicans [1] = experiment: Antifungal activity against Candida albicans ATCC 24433 overexpressing ADCaMDR1-GFP assessed as inhibition of fungal growth by broth microdilution method
Candida albicans [2] = experiment: Antifungal activity against Candida albicans ATCC 24433 overexpressing ADCDR1-GFP assessed as inhibition of fungal growth by broth microdilution method
Candida albicans [3] = experiment: Antifungal activity against Candida albicans ATCC 24433 overexpressing transporter protein F5 assessed as inhibition of fungal growth by broth microdilution method
Candida tropicalis = experiment: Antifungal activity against Candida tropicalis ATCC 750 assessed as inhibition of fungal growth by broth microdilution method
Candida parapsilosis = experiment: Antifungal activity against Candida parapsilosis ATCC 90018 assessed as inhibition of fungal growth by broth microdilution method; conditions: Lodderomyces parapsilosis
Candida albicans [4] = experiment: Antifungal activity against Candida albicans ATCC 24433 overexpressing transporter protein GU4 assessed as inhibition of fungal growth by broth microdilution method
[Candida] auris [5] = Antifungal activity against wild type Candida auris 102 assessed as inhibition of fungal growth by broth microdilution method; conditions: Candidozyma auris
Candida albicans [6] = experiment: Antifungal activity against Candida albicans ATCC 24433 overexpressing transporter protein GU5 assessed as inhibition of fungal growth by broth microdilution method
Candida albicans [7] = experiment: Synergistic antifungal activity against Candida albicans ATCC 24433 overexpressing ADCaMDR1-GFP assessed as fractional inhibitory concentration index incubated for 48 hrs in presence of caspofungin by checker board assay
Candida albicans [8] = experiment: Antifungal activity against Candida albicans ATCC 24433 assessed as inhibition of fungal growth by broth microdilution method
[Candida] auris [9] = Antifungal activity against Candida auris 118 assessed as inhibition of fungal growth by broth microdilution method; conditions: Candidozyma auris
Candida albicans [10] = experiment: Synergistic antifungal activity against Candida albicans ATCC 24433 overexpressing ADCDR1-GFP assessed as fractional inhibitory concentration index incubated for 48 hrs in presence of caspofungin by checker board assay
[Candida] auris [11] = Antifungal activity against Candida auris 102 assessed as inhibition of fungal growth by broth microdilution method; conditions: Candidozyma auris
Candida albicans [12] = experiment: Antifungal activity against Candida albicans ATCC 24433 overexpressing transporter protein F2 assessed as inhibition of fungal growth by broth microdilution method
Candida albicans [13] = experiment: Synergistic antifungal activity against Candida albicans ATCC 24433 overexpressing ADPDR5-G assessed as fractional inhibitory concentration index incubated for 48 hrs in presence of caspofungin by checker board assay
Candida albicans [14] = experiment: Synergistic antifungal activity against Candida albicans ATCC 24433 assessed as fractional inhibitory concentration index incubated for 48 hrs in presence of caspofungin by checker board assay
[Candida] auris [15] = Antifungal activity against Candida auris 105 assessed as inhibition of fungal growth by broth microdilution method; conditions: Candidozyma auris
Nakaseomyces glabratus = experiment: Antifungal activity against Candida glabrata ATCC 2001 assessed as inhibition of fungal growth by broth microdilution method
Candida albicans [16] = experiment: Antifungal activity against Candida albicans ATCC 24433 overexpressing AD(1-8)u-assessed as inhibition of fungal growth by broth microdilution method
Candida albicans [17] = experiment: Antifungal activity against Candida albicans ATCC 24433 overexpressing ADPDR5-GFP assessed as inhibition of fungal growth by broth microdilution method
Candida albicans [18] = experiment: Antifungal activity against Candida albicans SN152 harboring CAS5 mutant assessed as inhibition of fungal growth by broth microdilution method
Candida albicans [19] = experiment: Antifungal activity against wild type Candida albicans SN152 assessed as inhibition of fungal growth by broth microdilution method

COc1ccc(/C=C(\C)[N+](=O)[O-])cc1
MIC80 (Candida albicans [1]): 4 µg/mL (≈ 20.7 µM) | MIC80 (Candida albicans [2]): 8 µg/mL (≈ 41.4 µM) | MIC80 (Candida albicans [3]): 2 µg/mL (≈ 10.4 µM) | MIC80 (Candida tropicalis): 4 µg/mL (≈ 20.7 µM) | MIC80 (Candida parapsilosis): 16 µg/mL (≈ 82.8 µM) | MIC80 (Candida albicans [4]): 4 µg/mL (≈ 20.7 µM) | MIC80 ([Candida] auris [5]): 2 µg/mL (≈ 10.4 µM) | MIC80 (Candida albicans [6]): 4 µg/mL (≈ 20.7 µM) | fractional inhibitory concentration index (FICI) (Candida albicans [7]): <0.5 | MIC80 (Candida albicans [8]): 8 µg/mL (≈ 41.4 µM) | MIC80 ([Candida] auris [9]): 4 µg/mL (≈ 20.7 µM) | fractional inhibitory concentration index (FICI) (Candida albicans [10]): <0.5 | MIC80 ([Candida] auris [11]): 4 µg/mL (≈ 20.7 µM) | MIC80 (Candida albicans [12]): 2 µg/mL (≈ 10.4 µM) | fractional inhibitory concentration index (FICI) (Candida albicans [13]): <0.5 | fractional inhibitory concentration index (FICI) (Candida albicans [14]): <1.5 | MIC80 ([Candida] auris [15]): 2 µg/mL (≈ 10.4 µM) | MIC80 (Nakaseomyces glabratus): 4 µg/mL (≈ 20.7 µM) | MIC80 (Candida albicans [16]): 4 µg/mL (≈ 20.7 µM) | MIC80 (Candida albicans [17]): 4 µg/mL (≈ 20.7 µM)

O=[N+]([O-])/C=C/c1cccc(O)c1
MIC80 (Candida albicans [1]): 4 µg/mL (≈ 24.2 µM) | MIC80 (Candida albicans [2]): 16 µg/mL (≈ 96.9 µM) | MIC80 (Candida albicans [3]): 8 µg/mL (≈ 48.4 µM) | MIC80 (Candida tropicalis): > 32 µg/mL | MIC80 (Candida parapsilosis): 16 µg/mL (≈ 96.9 µM) | MIC80 (Candida albicans [18]): 8 µg/mL (≈ 48.4 µM) | MIC80 (Candida albicans [4]): 32 µg/mL (≈ 194 µM) | MIC80 ([Candida] auris [5]): 8 µg/mL (≈ 48.4 µM) | MIC80 (Candida albicans [6]): 16 µg/mL (≈ 96.9 µM) | fractional inhibitory concentration index (FICI) (Candida albicans [7]): <0.5 | MIC80 (Candida albicans [8]): 16 µg/mL (≈ 96.9 µM) | MIC80 ([Candida] auris [9]): 8 µg/mL (≈ 48.4 µM) | fractional inhibitory concentration index (FICI) (Candida albicans [10]): <0.5 | MIC80 ([Candida] auris [11]): 8 µg/mL (≈ 48.4 µM) | MIC80 (Candida albicans [12]): 16 µg/mL (≈ 96.9 µM) | fractional inhibitory concentration index (FICI) (Candida albicans [13]): <0.5 | MIC80 ([Candida] auris [15]): 8 µg/mL (≈ 48.4 µM) | MIC80 (Nakaseomyces glabratus): 16 µg/mL (≈ 96.9 µM) | MIC80 (Candida albicans [19]): 16 µg/mL (≈ 96.9 µM) | MIC80 (Candida albicans [16]): 16 µg/mL (≈ 96.9 µM) | MIC80 (Candida albicans [17]): 4 µg/mL (≈ 24.2 µM)

CC/C(=C\c1ccc(OC)c(OC)c1)[N+](=O)[O-]
MIC80 (Candida albicans [1]): 8 µg/mL (≈ 33.7 µM) | MIC80 (Candida albicans [2]): 32 µg/mL (≈ 135 µM) | MIC80 (Candida albicans [3]): 8 µg/mL (≈ 33.7 µM) | MIC80 (Candida tropicalis): 16 µg/mL (≈ 67.4 µM) | MIC80 (Candida parapsilosis): 32 µg/mL (≈ 135 µM) | MIC80 (Candida albicans [4]): 16 µg/mL (≈ 67.4 µM) | MIC80 ([Candida] auris [5]): 8 µg/mL (≈ 33.7 µM) | MIC80 (Candida albicans [6]): 8 µg/mL (≈ 33.7 µM) | fractional inhibitory concentration index (FICI) (Candida albicans [7]): <0.5 | MIC80 (Candida albicans [8]): 16 µg/mL (≈ 67.4 µM) | MIC80 ([Candida] auris [9]): 8 µg/mL (≈ 33.7 µM) | fractional inhibitory concentration index (FICI) (Candida albicans [10]): <0.5 | MIC80 ([Candida] auris [11]): 8 µg/mL (≈ 33.7 µM) | MIC80 (Candida albicans [12]): 8 µg/mL (≈ 33.7 µM) | fractional inhibitory concentration index (FICI) (Candida albicans [13]): <0.5 | MIC80 ([Candida] auris [15]): 8 µg/mL (≈ 33.7 µM) | MIC80 (Nakaseomyces glabratus): 32 µg/mL (≈ 135 µM) | MIC80 (Candida albicans [16]): 16 µg/mL (≈ 67.4 µM) | MIC80 (Candida albicans [17]): 8 µg/mL (≈ 33.7 µM)

CC/C(=C\c1cccc([N+](=O)[O-])c1)[N+](=O)[O-]
MIC80 (Candida albicans [1]): 8 µg/mL (≈ 36 µM) | MIC80 (Candida albicans [2]): 16 µg/mL (≈ 72 µM) | MIC80 (Candida albicans [3]): 4 µg/mL (≈ 18 µM) | MIC80 (Candida tropicalis): 16 µg/mL (≈ 72 µM) | MIC80 (Candida parapsilosis): 32 µg/mL (≈ 144 µM) | MIC80 (Candida albicans [18]): 8 µg/mL (≈ 36 µM) | MIC80 (Candida albicans [4]): 8 µg/mL (≈ 36 µM) | MIC80 ([Candida] auris [5]): 8 µg/mL (≈ 36 µM) | MIC80 (Candida albicans [6]): 16 µg/mL (≈ 72 µM) | fractional inhibitory concentration index (FICI) (Candida albicans [7]): <0.5 | MIC80 (Candida albicans [8]): 32 µg/mL (≈ 144 µM) | MIC80 ([Candida] auris [9]): 8 µg/mL (≈ 36 µM) | fractional inhibitory concentration index (FICI) (Candida albicans [10]): <0.5 | MIC80 ([Candida] auris [11]): 8 µg/mL (≈ 36 µM) | MIC80 (Candida albicans [12]): 4 µg/mL (≈ 18 µM) | fractional inhibitory concentration index (FICI) (Candida albicans [13]): <0.5 | fractional inhibitory concentration index (FICI) (Candida albicans [14]): <0.5 | MIC80 ([Candida] auris [15]): 8 µg/mL (≈ 36 µM) | MIC80 (Nakaseomyces glabratus): 16 µg/mL (≈ 72 µM) | MIC80 (Candida albicans [19]): 16 µg/mL (≈ 72 µM) | MIC80 (Candida albicans [16]): 16 µg/mL (≈ 72 µM) | MIC80 (Candida albicans [17]): 16 µg/mL (≈ 72 µM)

COc1ccc(/C=C/[N+](=O)[O-])cc1OC
MIC80 (Candida albicans [1]): 16 µg/mL (≈ 76.5 µM) | MIC80 (Candida albicans [2]): 32 µg/mL (≈ 153 µM) | MIC80 (Candida albicans [3]): 16 µg/mL (≈ 76.5 µM) | MIC80 (Candida tropicalis): 16 µg/mL (≈ 76.5 µM) | MIC80 (Candida parapsilosis): 32 µg/mL (≈ 153 µM) | MIC80 (Candida albicans [4]): 32 µg/mL (≈ 153 µM) | MIC80 ([Candida] auris [5]): 4 µg/mL (≈ 19.1 µM) | MIC80 (Candida albicans [6]): 16 µg/mL (≈ 76.5 µM) | MIC80 (Candida albicans [8]): 32 µg/mL (≈ 153 µM) | MIC80 ([Candida] auris [9]): 4 µg/mL (≈ 19.1 µM) | MIC80 ([Candida] auris [11]): 8 µg/mL (≈ 38.2 µM) | MIC80 (Candida albicans [12]): 16 µg/mL (≈ 76.5 µM) | MIC80 ([Candida] auris [15]): 8 µg/mL (≈ 38.2 µM) | MIC80 (Nakaseomyces glabratus): 32 µg/mL (≈ 153 µM) | MIC80 (Candida albicans [16]): 16 µg/mL (≈ 76.5 µM) | MIC80 (Candida albicans [17]): 16 µg/mL (≈ 76.5 µM)

OC(Cn1cncn1)(Cn1cncn1)c1ccc(F)cc1F [FLUCONAZOLE]
MIC80 (Candida albicans [18]): 1 µg/mL (≈ 3.27 µM) | MIC80 (Candida albicans [19]): 1 µg/mL (≈ 3.27 µM)

C/C(=C\c1ccc(N(C)C)cc1)[N+](=O)[O-]
MIC80 (Candida albicans [1]): 8 µg/mL (≈ 38.8 µM) | MIC80 (Candida albicans [2]): 32 µg/mL (≈ 155 µM) | MIC80 (Candida albicans [3]): 16 µg/mL (≈ 77.6 µM) | MIC80 (Candida tropicalis): 16 µg/mL (≈ 77.6 µM) | MIC80 (Candida parapsilosis): 32 µg/mL (≈ 155 µM) | MIC80 (Candida albicans [4]): 16 µg/mL (≈ 77.6 µM) | MIC80 ([Candida] auris [5]): 8 µg/mL (≈ 38.8 µM) | MIC80 (Candida albicans [6]): 16 µg/mL (≈ 77.6 µM) | MIC80 (Candida albicans [8]): 16 µg/mL (≈ 77.6 µM) | MIC80 ([Candida] auris [9]): 8 µg/mL (≈ 38.8 µM) | MIC80 ([Candida] auris [11]): 8 µg/mL (≈ 38.8 µM) | MIC80 (Candida albicans [12]): 16 µg/mL (≈ 77.6 µM) | MIC80 ([Candida] auris [15]): 8 µg/mL (≈ 38.8 µM) | MIC80 (Nakaseomyces glabratus): 32 µg/mL (≈ 155 µM) | MIC80 (Candida albicans [16]): 16 µg/mL (≈ 77.6 µM) | MIC80 (Candida albicans [17]): 16 µg/mL (≈ 77.6 µM)

Nc1c(/N=N/c2ccc(-c3ccc(/N=N/c4cc(S(=O)(=O)[O-])c5ccccc5c4N)cc3)cc2)cc(S(=O)(=O)[O-])c2ccccc12.[Na+].[Na+] [CONGO RED]
MIC80 (Candida albicans [18]): 0.781 µg/mL | MIC80 (Candida albicans [19]): 100 µg/mL

C[C@@H]1[C@H](O)[C@@H](C)/C=C/C=C/C=C/C=C/C=C/C=C/C=C/[C@H](O[C@@H]2O[C@H](C)[C@@H](O)[C@H](N)[C@@H]2O)C[C@@H]2O[C@](O)(C[C@@H](O)C[C@@H](O)[C@H](O)CC[C@@H](O)C[C@@H](O)CC(=O)O[C@H]1C)C[C@H](O)[C@H]2C(=O)O [AMPHOTERICIN B]
MIC80 (Candida albicans [18]): 0.5 µg/mL (≈ 0.541 µM) | MIC80 (Candida albicans [19]): 0.5 µg/mL (≈ 0.541 µM)
